# Test results published in patent US7067549B2, “Pyrrolidone carboxamides” (Actelion Pharmaceuticals AG, priority 2001, dated 2006).
# Molecular target: T1, mouse NPY-Y5 receptors (mNPY-Y5) (Mus musculus, UniProt O70342)
# T1 construct: The full-length cDNA which contains the mouse NPY-Y5 (mNPY-Y5) receptor coding was amplified from mouse brain cDNA; expressed in transfected cells
# T1 sequence (O70342 1-466): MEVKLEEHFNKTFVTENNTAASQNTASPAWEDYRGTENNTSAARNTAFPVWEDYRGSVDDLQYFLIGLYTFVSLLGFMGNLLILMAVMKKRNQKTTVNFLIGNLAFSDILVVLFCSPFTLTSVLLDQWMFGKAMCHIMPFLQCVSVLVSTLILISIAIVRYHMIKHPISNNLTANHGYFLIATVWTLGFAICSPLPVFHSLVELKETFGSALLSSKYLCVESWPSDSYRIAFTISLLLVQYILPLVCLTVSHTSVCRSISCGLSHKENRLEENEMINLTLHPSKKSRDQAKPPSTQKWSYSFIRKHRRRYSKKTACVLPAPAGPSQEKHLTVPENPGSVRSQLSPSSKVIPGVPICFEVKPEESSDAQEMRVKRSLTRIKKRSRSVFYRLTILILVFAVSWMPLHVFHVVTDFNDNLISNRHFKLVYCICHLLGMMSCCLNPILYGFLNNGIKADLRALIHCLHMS
# Assay: Radioligand competition binding (125I-PYY) on membranes of HEK293 cells expressing recombinant mouse NPY-Y5 receptor
# Conditions: displacement of 100 pM 125I-labeled PYY, 1 h at 22° C., read-out: NPY5 IC50
# Text: The full-length cDNA which contains the mouse NPY-Y5 (mNPY-Y5) receptor coding was amplified from mouse brain cDNA using specific primers, which were custom-made on the basis of published sequences, and employing Pfu DNA polymerase (Stratagene). The amplification product was subcloned into a mammalian expression vector pcDNA3 using EcoRI and XhoI restriction sites. Positive clones were sequenced; one clone, which contained the published sequence, was selected for preparing stable cell clones.
# Human embryonic kidney 293 (HEK293) cells were transfected with 10 μg of mNPY5 DNA using Lipofectamine reagent (Gibco BRL) in accordance with the manufacturer's instructions. Two days after the transfection, the geneticin selection (1 mg/ml) was initiated and several stable clones were isolated. One of the clones was used for further pharmacological characterization.
# Human embryonic kidney cells (HEK293) which express recombinant mouse NPY-Y5 receptors (mNPY-Y5) were disrupted by being frozen/thawed three times in hypotonic Tris buffer (5 mM, pH 7.4, 1 mM MgCl2), after which they were homogenized and centrifuged at 72 000 G for 15 minutes. The precipitate was washed twice with Tris buffer (pH 7.4) containing 25 mM MgCl2, 250 mM sucrose, 0.1 mM phenylmethylsulfonyl fluoride and 0.1 mM 1,10-phenanthroline, then resuspended in the same buffer and stored in aliquots at −80° C. The protein was determined by the Lowry method using bovine serum albumin (BSA) as the standard.
# The competition binding analysis was carried out in 250 μl of 25 mM Hepes buffer (pH 7.4, 2.5 mM CaCl2, 1 mM MgCl2, 1% bovine serum albumin and 0.01% sodium azide) which 5 μg of protein, 100 pM ^125I-labeled peptide YY (PYY) and 10 μl of a DMSO solution containing increasing quantities of DMSO solution containing unlabeled test compound. After a one-hour incubation at 22° C., the bound ligand was separated from the unbound ligand by means of filtration through a glass fiber filter. Nonspecific binding was determined in the presence of 1 μM unlabeled PYY. Specific binding is defined as the difference between total binding and nonspecific binding. An IC50 value is defined as the concentration of the antagonist which displaces 50% of the ^125I-labeled […]. This concentration is determined by linear regression analysis following logit/log transformation of the binding values.
row,SMILES,IC50 [nM]
1,"COc1ccc(C)c(N2CC(C(=O)Nc3ccc(Nc4nc(C)cc(C)n4)cc3)CC2=O)c1 (racemic) [rac. N-[4-(4,6-Dimethylpyrimidin-2-ylamino)phenyl]-1-(5-methoxy-2-methylphenyl)-5-oxopyrrolidine-3-carboxamide]",26
2,CC(C)c1ccccc1N1CC(C(=O)Nc2ccc(N(CC3CC3)c3ccccc3)cc2)CC1=O (racemic) [rac. N-[4-(Cyclopropylmethylphenylamino)phenyl]-1-(2-isopropylphenyl)-5-oxopyrrolidine-3-carboxamide],47
3,"COc1ccc(C)c(N2CC(C(=O)Nc3ccc(N(C)c4nc(C)cc(C)n4)cc3)CC2=O)c1 (racemic) [rac. N-{4-[(4,6-Dimethylpyrimidin-2-yl)methylamino]phenyl}-1-(5-methoxy-2-methylphenyl)-5-oxopyrrolidine-3-carboxamide]",41
4,"Cc1ccc(C)c(N2CC(C(=O)Nc3ccc(N(C)c4ccccc4)cc3)CC2=O)c1 (racemic) [rac. N-[4-(Methylphenylamino)phenyl]-1-(2,5-dimethylphenyl)-5-oxopyrrolidine-3-carboxamide]",26
5,"CCN(c1ccc(NC(=O)C2CC(=O)N(c3ccccc3C(C)C)C2)cc1)c1nc(C)cc(C)n1 (racemic) [rac. N-{4-[(4,6-Dimethylpyrimidin-2-yl)ethylamino]phenyl}-1-(2-isopropylphenyl)-5-oxopyrrolidine-3-carboxamide]",46
6,"Cc1cc(C)nc(Nc2ccc(NC(=O)C3CC(=O)N(C4Cc5ccccc5C4)C3)cc2)n1 (racemic) [rac. N-[4-(4,6-Dimethylpyrimidin-2-ylamino)phenyl]-1-indan-2-yl-5-oxopyrrolidine-3-carboxamide]",30
7,"CCN(c1ccc(NC(=O)C2CC(=O)N(CCc3ccccn3)C2)cc1)c1nc(C)cc(C)n1 (racemic) [rac. N-{4-[(4,6-Dimethylpyrimidin-2-yl)ethylamino]phenyl}-5-oxo-1-(2-pyridin-2-ylethyl)pyrrolidine-3-carboxamide]",24
8,"Cc1ccc(C)c(N2CC(C(=O)Nc3ccc(N(CC4CC4)c4ccccc4)cc3)CC2=O)c1 (racemic) [rac. N-[4-(Cyclopropylmethylphenylamino)phenyl]-1-(2,5-dimethylphenyl)-5-oxopyrrolidine-3-carboxamide]",45
9,CCn1c2ccccc2c2cc(NC(=O)C3CC(=O)N(c4cccc(F)c4)C3)ccc21 (racemic) [rac. N-(9-Ethyl-9H-carbazol-3-yl)-1-(3-fluorophenyl)-5-oxopyrrolidine-3-carboxamide],30

# Stronger by IC50, values ahead:
row,IC50 [nM],SMILES
1,22,"Cc1ccc(C)c(N2CC(C(=O)Nc3ccc(N(c4ccccc4)C(C)C)cc3)CC2=O)c1 (racemic) [rac. N-[4-(Isopropylphenylamino)phenyl]-1-(2,5-dimethylphenyl)-5-oxopyrrolidine-3-carboxamide]"
2,17,"CCN(c1ccccc1)c1ccc(NC(=O)C2CC(=O)N(c3cc(C)ccc3C)C2)cc1 (racemic) [rac. N-[4-(Ethylphenylamino)phenyl]-1-(2,5-dimethylphenyl)-5-oxopyrrolidine-3-carboxamide]"
3,16,"CCN(CCO)c1ccc(NC(=O)C2CC(=O)N(c3cc(C)ccc3C)C2)cc1 (racemic) [rac. N-{4-[Ethyl-(2-hydroxyethyl)amino]phenyl}-1-(2,5-dimethylphenyl)-5-oxopyrrolidine-3-carboxamide]"
4,10,CCn1c2ccccc2c2cc(NC(=O)C3CC(=O)N(c4cc(OC)ccc4C)C3)ccc21 (racemic) [rac. N-(9-Ethyl-9H-carbazol-3-yl)-1-(5-methoxy-2-methylphenyl)-5-oxopyrrolidine-3-carboxamide]
5,10,CCn1c2ccccc2c2cc(NC(=O)C3CC(=O)N(Cc4ccco4)C3)ccc21 (racemic) [rac. N-(9-Ethyl-9H-carbazol-3-yl)-1-furan-2-ylmethyl-5-oxopyrrolidine-3-carboxamide]
6,3,CCn1c2ccccc2c2cc(NC(=O)C3CC(=O)N(CCc4ccccn4)C3)ccc21 (racemic) [rac. N-(9-Ethyl-9H-carbazol-3-yl)-5-oxo-1-(2-pyridin-2-ylethyl)pyrrolidine-3-carboxamide]
